The values below come from patent US9868758B2, “Betulinic proline imidazole derivatives as HIV inhibitors” (HETERO LABS LIMITED, priority 2014, dated 2018).

Read-outs that look alike come from different tables or passages of the source.

Series [1] relates to HIV-1 strains, for e.g., 92HT599. The experiment in a line: Antiviral activity: p24 estimation in HIV-1 infected MT-2 cells. The format is cell-based. The procedure:
MT-2 cells were infected with required number of TCID50's of HIV-1 strains, for e.g., 92HT599. The infected cells were plated at the concentration of 30,000 cells per well in a 96 well plate. Test compound was added to the 96 well plate with the final concentration of DMSO (vehicle—not more than 1%). The plates are then incubated in a CO2 incubator for ˜96 hours (˜4 days) for viral infection. At the end of incubation period an aliquot from each well was taken for p24 estimation. The quantitation of p24 is an estimated index for antiviral activity of the compound. Percent inhibition was calculated with reference to control values (vehicle controls).
p-24 estimation was carried out using Advance biosciences kit as per the procedure detailed by supplier.

Series [2] is described as follows: Single dose oral pharmacokinetic study. More on the design: species or system mice. Conditions: mouse, in vivo. On the procedure:
The test item was administered through oral route to animals (rat/mice) at 30 mg/kg dose in a suitable vehicle at 10 ml/kg dose volume. Blood samples (˜50 uL at each time point) were collected from retro-orbital plexus using K3 EDTA as anticoagulant in eppendorf tubes at defined time intervals under light ether anesthesia. The samples were centrifuged at 3500×g to separate plasma and stored at −80° C. until analysis.
Sample analysis: Test samples were analyzed using LC-MS-MS after developing fit-for-purpose method for each of test compound.

[3] abbreviates: Human immunodeficiency virus 1, MT2, MT-2 cells, p24, read-out: Antiviral activity IC50.

A word on the IC50: it is the concentration that inhibits the measured activity by half. For orientation: AUC(0-t) means the area under the concentration-time curve up to a stated or last time point. One may read the Cmax as the maximum level reached in the sampled fluid or tissue. On to `C=C(C)[C@@H]1CC[C@]2(C(=O)N3CCC[C@H]3c3nc(-c4ccccc4)cn3CCN3CCOCC3)CC[C@]3(C)[C@H](CC[C@@H]4[C@@]5(C)CC[C@H](OC(=O)[C@H]6C[C@@H](C(=O)O)C6(C)C)C(C)(C)[C@@H]5CC[C@]43C)[C@@H]12` [Compound 3, (1R,3S)-2,2-dimethyl-3-((((1R,3aS,5aR,5bR,7aR,9S,11aR,11bR,13aR,13bR)-5a,5b,8,8,11a-pentamethyl-3a-((S)-2-(1-(2-morpholinoethyl)-4-phenyl-1H-imidazol-2-yl)pyrrolidine-1-carbonyl)-1-(prop-1-en-2-yl)icosahydro-1H-cyclopenta[a]chrysen-9-yl)oxy)carbonyl)cyclo butane-1-carboxylic acid], for which the IC50 in series [1] (setting [3]) is 113 nM. In series [2] (po, 30 mg/kg), this molecule showed an AUC(0-t) of 407 µg·h/mL and a Cmax of 14700 ng/mL.
Turning to `C=C(C)[C@@H]1CC[C@]2(C(=O)N3CCC[C@H]3c3nc(-c4cccnc4)cn3CCN(C)C)CC[C@]3(C)[C@H](CC[C@@H]4[C@@]5(C)CC[C@H](OC(=O)CC(C)(C)C(=O)O)C(C)(C)[C@@H]5CC[C@]43C)[C@@H]12` [Compound 18, 4-(((1R,3aS,5aR,5bR,7aR,9S,11aR,11bR,13aR,13bR)-3a-((S)-2-(1-(2-(dimethylamino)ethyl)-4-(pyridin-3-yl)-1H-imidazol-2-yl)pyrrolidine-1-carbonyl)-5a,5b,8,8,11a-pentamethyl-1-(prop-1-en-2-yl)icosahydro-1H-cyclopenta[a]chrysen-9-yl)oxy)-2,2-dimethyl-4-oxobutanoic acid], in series [1] (setting [3]), the concentration for half-maximal inhibition (IC50) was 80.4 nM. Moreover, in series [2] (po, 30 mg/kg), the AUC(0-t) was 3.01 µg·h/mL and the peak level (Cmax) was 648 ng/mL.
For the molecule `C=C(C)[C@@H]1CC[C@]2(C(=O)N3CCC[C@H]3c3nc(-c4ccc(F)cc4)cn3CCP(=O)(OCC)OCC)CC[C@]3(C)[C@H](CC[C@@H]4[C@@]5(C)CC[C@H](OC(=O)[C@H]6C[C@@H](C(=O)O)C6(C)C)C(C)(C)[C@@H]5CC[C@]43C)[C@@H]12` [Compound 24, (1R,3S)-3-((((1R,3aS,5aR,5bR,7aR,9S,11aR,11bR,13aR,13bR)-3a-((S)-2-(1-(2-(diethoxyphosphoryl)ethyl)-4-(4-fluorophenyl)-1H-imidazol-2-yl)pyrrolidine-1-carbonyl)-5a,5b,8,8,11a-pentamethyl-1-(prop-1-en-2-yl)icosahydro-1H-cyclopenta[a]chrysen-9-yl)oxy)carbonyl)-2,2-dimethylcyclobutane-1-carboxylic acid], in series [1] (Human immunodeficiency virus 1, MT2, read-out: Antiviral activity IC50 (nM)), the IC50 was 0.972 nM. In addition, the AUC(0-t) in series [2] (Mice oral PK @30 mg/kg, plasma, read-out: AUC 0-t) was 89.4 µg·h/mL. Besides, in series [2] (Mice oral PK @30 mg/kg, plasma, read-out: Cmax), the Cmax is 2550 ng/mL.
Turning to `C=C(C)[C@@H]1CC[C@]2(C(=O)N3CCC[C@H]3c3nc(-c4ccccc4)cn3CCN3CCCC3)CC[C@]3(C)[C@H](CC[C@@H]4[C@@]5(C)CC[C@H](OC(=O)[C@H]6C[C@@H](C(=O)O)C6(C)C)C(C)(C)[C@@H]5CC[C@]43C)[C@@H]12` [Compound 10, (1R,3S)-2,2-dimethyl-3-((((1R,3aS,5aR,5bR,7aR,9S,11aR,11bR,13aR,13bR)-5a,5b,8,8,11a-pentamethyl-3a-((S)-2-(4-phenyl-1-(2-(pyrrolidin-1-yl)ethyl)-1H-imidazol-2-yl)pyrrolidine-1-carbonyl)-1-(prop-1-en-2-yl)icosahydro-1H-cyclopenta[a]chrysen-9-yl)oxy)carbonyl)cyclo butane-1-carboxylic acid], the IC50 in series [1] (setting [3]) is 7.75 nM. In series [2] (po, 30 mg/kg), this molecule came in with an AUC(0-t) of 145 µg·h/mL and a Cmax of 4640 ng/mL.
For the molecule `C=C(C)[C@@H]1CC[C@]2(C(=O)N3CCC[C@H]3c3nc(-c4ccccc4)cn3CCOC)CC[C@]3(C)[C@H](CC[C@@H]4[C@@]5(C)CC[C@H](OC(=O)[C@H]6C[C@@H](C(=O)O)C6(C)C)C(C)(C)[C@@H]5CC[C@]43C)[C@@H]12` [Compound 4, (1R,3S)-3-((((1R,3aS,5aR,5bR,7aR,9S,11aR,11bR,13aR,13bR)-3a-((S)-2-(1-(2-methoxyethyl)-4-phenyl-1H-imidazol-2-yl)pyrrolidine-1-carbonyl)-5a,5b,8,8,11a-pentamethyl-1-(prop-1-en-2-yl)icosahydro-1H-cyclopenta[a]chrysen-9-yl)oxy)carbonyl)-2,2-dimethylcyclobutane-1-carboxylic acid], in series [2] (po, 30 mg/kg), the AUC(0-t) worked out at 291 µg·h/mL and the highest concentration (Cmax) came out at 9220 ng/mL.
In the same order, the values of `C=C(C)[C@@H]1CC[C@]2(C(=O)N3C[C@H](OCCOC)C[C@H]3c3nc(-c4ccccc4)cn3CCN(C)C)CC[C@]3(C)[C@H](CC[C@@H]4[C@@]5(C)CC[C@H](OC(=O)[C@H]6C[C@@H](C(=O)O)C6(C)C)C(C)(C)[C@@H]5CC[C@]43C)[C@@H]12` [Compound 25, (1R,3S)-3-((((1R,3aS,5aR,5bR,7aR,9S,11aR,11bR,13aR,13bR)-3a-((2S,4R)-2-(1-(2-(dimethylamino)ethyl)-4-phenyl-1H-imidazol-2-yl)-4-(2-methoxyethoxy)pyrrolidine-1-carbonyl)-5a,5b,8,8,11a-pentamethyl-1-(prop-1-en-2-yl)icosahydro-1H-cyclopenta[a]chrysen-9-yl)oxy)carbonyl)-2,2-dimethylcyclobutane-1-carboxylic acid] are 617 µg·h/mL and 17600 ng/mL.
In the same order, the values of `C=C(C)[C@@H]1CC[C@]2(C(=O)N3CCC[C@H]3c3nc(-c4ccccc4)cn3CCOCCOC)CC[C@]3(C)[C@H](CC[C@@H]4[C@@]5(C)CC[C@H](OC(=O)[C@H]6C[C@@H](C(=O)O)C6(C)C)C(C)(C)[C@@H]5CC[C@]43C)[C@@H]12` [Compound 2, (1R,3S)-3-((((1R,3aS,5aR,5bR,7aR,9S,11aR,11bR,13aR,13bR)-3a-((S)-2-(1-(2-(2-methoxyethoxy)ethyl)-4-phenyl-1H-imidazol-2-yl)pyrrolidine-1-carbonyl)-5a,5b,8,8,11a-pentamethyl-1-(prop-1-en-2-yl)icosahydro-1H-cyclopenta[a]chrysen-9-yl)oxy)carbonyl)-2,2-dimethyl cyclobutane-1-carboxylic acid] are 335 µg·h/mL and 11400 ng/mL.
With `C=C(C)[C@@H]1CC[C@]2(C(=O)N3CCC[C@H]3c3nc(-c4ccc(F)cc4)cn3CCN(C)C)CC[C@]3(C)[C@H](CC[C@@H]4[C@@]5(C)CC[C@H](OC(=O)[C@H]6C[C@@H](C(=O)O)C6(C)C)C(C)(C)[C@@H]5CC[C@]43C)[C@@H]12` [Compound 7, (1R,3S)-3-((((1R,3aS,5aR,5bR,7aR,9S,11aR,11bR,13aR,13bR)-3a-((S)-2-(1-(2-(dimethylamino)ethyl)-4-(4-fluorophenyl)-1H-imidazol-2-yl)pyrrolidine-1-carbonyl)-5a,5b,8,8,11a-pentamethyl-1-(prop-1-en-2-yl)icosahydro-1H-cyclopenta[a]chrysen-9-yl)oxy)carbonyl)-2,2-dimethyl cyclobutane-1-carboxylic acid], in series [1] (setting [3]), the IC50 is 75.3 nM.
